# Source: patent publication US10273313B2, “Multimeric mannosides, a process for preparing the same and their uses as a drug” (CENTRE NATIONAL DE LA RECHERCHE SCIENTIFIQUE, priority 2012, dated 2019)
# pKd: −log10 of the molar value.
# How the values were obtained:
# [1] = test system: human Jurkat cells; test: Prevention of FimH-induced apoptosis of Jurkat cells (24 h)
# Method: Eventually, we tested the ability of mannose-based inhibitors to prevent the induction of cell death of human Jurkat cells under the treatment with FimH. We cultures cells with the indicated compound for 24 h and counter percentage of viable (AnV−/Pi−), apoptotic (AnV+/Pi−) and necrotic cells (AnV+/PI+). […] 2. […] 3.
# Apoptosis was induced by UV-B irradiation with 90 mJ/cm^2, apoptosis of human PMN cells was induced by 24 h aging. To quantify the rate of apoptosis, cells were analyzed by flow cytometry or fluorescent microscopy. Amongst other features, apoptosis is characterized by blebbing of the cellular membrane, leading to a decrease in the forward scatter (FSC) and an increase in the sideward scatter (SSC). For detection of phosphatidylserine (PS) exposure on the cell surface staining with FITC conjugated annexin V (Böhringer, Mannheim, Germany) in combination with propidium iodide (PI) (AxV/PI) was performed. 200.000 cells were stained for 30 minutes at 4° C. with 200 ng of AxV-FITC and 500 ng propidium iodide (PI) in 500 μl Ringer's solution [Nicoletti, Migliorati, Pagliacci, Grignani and Riccardi, A rapid and simple method for measuring thymocyte apoptosis by propidium iodide staining and flow cytometry. J Immunol Methods, 1991. 139.271-9]. The samples were immediately analyzed by flow cytometry of fluorescent microscopy.
# [2] = test system: E. coli strain UTI89 expressing type-1 fimbriae; test: Bacterial crosslinking, epi-fluorescence microscopy; assay type: cell-based, Escherichia coli; conditions: acridin orange colored UTI89
# Method: The possibility to capture living bacteria in solution with β-CD-based glycol-clusters 2 and 4, using epi-fluorescence microscopy was investigated.
# It was decided to evaluate if the FimH aggregation evidenced in ITC, DLS and SAXS could also occur when the lectin is attached at the tip of the bacteria pili. E. coli strain UTI89 expressing type-1 fimbriae. Said bacteria were diluted from the culture medium into PBS and glyco-conjugated in a ten-fold dilution series of 2 or 4 were added. Bacterial cells were then colored with acridin orange.
# 100 μl of glycoconjugate-agglutinated E. coli were washed in 1 ml PBS, resuspended in 200 μl 0.1% acridin orange and left at room temperature for 2.5 hours. The bacterial cells were washed again in 1 ml PBS to remove unbound acridin orange. A microscope glass was rinsed with 100% EtOH and next dried at the air.
# [3] = test system: AIEC LF82 strain adhesion to T84 intestinal epithelial cells; test: Adhesion assay on T84 cells, cells incubated 1 h with mannoside prior infection (Example 21.1); assay type: cell-based, Escherichia coli
# Method: E. coli strain LF82 was isolated from a chronic ileal lesion of a patient with Crohn's disease (CD). Bacteria were grown routinely in Luria-Bertani (LB) broth overnight at 37° C. Intestinal epithelial cells T84 derived from colonic adenocarcinoma were maintained in an atmosphere containing 5% CO2 at 37° C. in DMEM/F12 (50/50) medium supplemented with 10% (v/v) heat-inactivated fetal calf serum (FCS), 1% L-glutamine, 100 000 U·l^−1 penicillin, 100 mg·l^−1 streptomycin, 25 μg·l^−1 amphotericin B.
# T84 cells were seeded in 48-well tissue culture plates with 1.5×10^5 cells per well and grown for 48 h. Cells were incubated 1 h prior infection with each mannoside at a final concentration of 100; 10; 1 or 0.1 μM in complete medium without antibiotics, containing heat inactivated fetal calf serum (FCS) and were next infected with AIEC LF82 strain at a multiplicity of infection (MOI) of 10 bacteria per cell. After a 3 h incubation period at 37° C., the monolayers were washed in phosphate-buffered saline (PBS; pH 7.2). The epithelial cells were then lysed with 1% Triton X-100 in deionized water. Samples were diluted and plated onto Luria Bertani agar plates to determine the number of cfu recovered from the lysed monolayers.
# Results were expressed in percentage of residual adhesion, considering adhesion level of AIEC LF82 without mannoside treatment as 100%.
# [4] = test system: primary human peripheral venous blood monocyte-derived macrophages; test: Macrophage-mediated phagocytosis of aged PMN cells; assay type: cell-based; conditions: 10 nM
# Text: To estimate the influence of mannose-based inhibitors on possible inhibition of phagocytosis we used primary human peripheral venous blood monocyte-derived macrophages and estimated their ability to phagocyte autologous and allogenic human blood-derived PMN cells, as described by us previous (Bilyy, R. O. et al. (2012) J Biol Chem 287, 496-503).
# Primary human PMN and MoMa from healthy volunteers were used. Monocytes were isolated from peripheral blood by LymphoPrep® gradient according to manufacture's recommendations for isolation of PBMC fraction. Plastic-attached cells of PBMC fraction were then cultured for 7 days in the presence of GM-CSF (100 U/ml) and autologous serum (added at days 1, 3 and 5) to generate MoMa. After 7 days of differentiation, the MoMa population was tested. They typically contain >95% CD11b+ cells, >90% CD14+ cells and >85% CD89+ cells. Phagocytosis was assessed by pre-incubation of PMN (freshly isolated or aged for 24 h) with mannose-based inhibitor for 30 min at 37° C. at Ringer buffer. Cells were thoroughly washed three times with Ringer solution and incubated with human MoMa for 2 hours. Uningested PMN were analyzed by flow cytometry (for this reason cells were pre-stained with CFSE (Rodel, F. et al. (2005) Strahlentherapie and Onkologie: Organ der Deutschen Rontgengesellschaft . . . [et al] 181, 456-462)) or in the hemocytometric chamber using Zeiss AxioImager A1 microscope. The percentage of prey cells that had been bound to or taken up by MoMa (% of phagocytosis) was calculated.
# [5] = test system: AIEC strain LF82 adhesion to T84 intestinal epithelial cells; test: Adhesion assay on T84 cells with thiazolylaminomannosides (Example 22.3); assay type: cell-based, Escherichia coli
# Method in brief: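 CEACAM6-overexpressing T84 cells pre-incubated 1 h with compound (0.1, 1, 10, 100 μM), then infected with AIEC LF82 at MOI 10 for 3 h in compound presence. Cell-associated bacteria counted after washing; residual adhesion expressed relative to untreated (100%).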
# [6] = target: FimH (Escherichia coli, UniProt P08191); conditions: Surface Plasmon Resonance (SPR); read-out: Dissociation constant of the HM-FimH complex; cited from earlier work
# Sequence of FimH (P08191 22-300): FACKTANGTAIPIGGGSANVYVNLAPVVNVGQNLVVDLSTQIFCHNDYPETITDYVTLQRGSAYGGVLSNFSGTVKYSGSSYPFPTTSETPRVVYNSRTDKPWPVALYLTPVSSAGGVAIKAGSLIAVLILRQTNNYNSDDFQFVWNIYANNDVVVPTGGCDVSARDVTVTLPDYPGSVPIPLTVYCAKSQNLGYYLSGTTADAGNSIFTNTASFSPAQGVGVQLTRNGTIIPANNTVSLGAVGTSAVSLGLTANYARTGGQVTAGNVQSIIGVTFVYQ
SMILES,Toxicity to Jurkat cells [1],Prevention of apoptosis induction by FimH ([1]; 10 nM),Prevention of apoptosis induction by FimH ([1]; 100 nM),Bacterial clustering in solution [2],Concentration reaching around 75% of binding inhibition (25% line) [3],Phagocytosis rate [4],Inhibitory potency relative to α-D-mannose [5],Inhibitory effect on adhesion ([5]; 100 nM),AIEC remaining attached to the cells (residual adhesion) ([5]; 1 μM),Residual adhesion ([5]; 10 μM),pKd [6]
OCC1OC(OCCCCCCCOCc2cn(CC3OC4OC5C(Cn6cc(COCCCCCCCOC7OC(CO)C(O)C(O)C7O)nn6)OC(OC6C(Cn7cc(COCCCCCCCOC8OC(CO)C(O)C(O)C8O)nn7)OC(OC7C(Cn8cc(COCCCCCCCOC9OC(CO)C(O)C(O)C9O)nn8)OC(OC8C(Cn9cc(COCCCCCCCOC%10OC(CO)C(O)C(O)C%10O)nn9)OC(OC9C(Cn%10cc(COCCCCCCCOC%11OC(CO)C(O)C(O)C%11O)nn%10)OC(OC%10C(Cn%11cc(COCCCCCCCOC%12OC(CO)C(O)C(O)C%12O)nn%11)OC(OC3C(O)C4O)C(O)C%10O)C(O)C9O)C(O)C8O)C(O)C7O)C(O)C6O)C(O)C5O)nn2)C(O)C(O)C1O (stereo not drawn) [Compound 2],not toxic,effectively prevented apoptosis induction,effectively prevented apoptosis induction,formation of bacterial clusters,1 µM,no phagocytosis decrease,,,,,
"CCCCCCCO[C@H]1O[C@H](CO)[C@@H](O)[C@H](O)[C@@H]1O [HM, Heptylmannoside, reference compound]",,,,,,significantly decreased phagocytosis rate,100 times,no significant effect,No significant decrease,52.4%,8.30
